For test [1], the system named is HUVEC. In words: qPCR of lymphatic fate genes in RAF1-transduced HUVEC treated with pathway inhibitors for 24 hours. The format is cell-based, Human. The settings on record: HUVEC with GFP or RAF1S259A adenovirus, Rapamycin 10 nM, AKT inhibitor VIII 1 μM. The method, then:
ERK activation was quantified by densitometry and is represented as ratio of pERK1/2 versus total ERK1/2. Immunofluorescence staining showing higher P-ERK1/2 in β-GAL positive endothelial cells of E12.5 S259A embryos. jv, jugular vein. FIGS. 10B-10E are graphs showing HUVEC transduced with control, wild type Raf1 or RAF1S259A lentiviruses treated with DMSO, MEK inhibitor U0126 (10 μM) or PI3K inhibitor LY294002 (10 μM) for 24 hours. Sox18 (FIG. 10B), Prox1 (Figure), Vegfr3 (FIG. 10D) and Lyve1 (10E) expression was assessed by qPCR. FIGS. 10E-10H are graphs showing HUVEC transduced with GFP or RAF1S259A adenoviruses treated with DMSO, Rapamycin (10 nM), AKT inhibitor VIII (1 μM) and LY294002 (10 μM) for 24 hours. Sox18 (FIG. 10F), Prox1 (FIG. 10G) and Coup-TFII (FIG. 10H) expression assessed by qPCR. Data are Mean±SEM (n=3).*, p<0.05; **, p<0.01.
(§1) Total RNA was purified using a QiagenRNeasyPlus Mini kit. cDNA was synthesized using a Bio-Rad iScript cDNA Synthesisis kit. qPCR was performed using a Bio-Rad iQ SYBR Green Supermix on a Bio-Rad CFX96 Real Time System. For immunoblot, cells were lysed in RIPA buffer supplemented with protease and phosphatase inhibitors. Cell lysates were then separated with 4-20% gradient gel (Bio-Rad) and subjected to immunoblot.

The subject of test [2] is ERK. Put plainly: ERK activation by western blot in HUVEC infected with RAF1 WT or RAF1 S259A lentivirus. The format is cell-based, Human.
Test [3] deals with 14-3-3. Put plainly: Immunoprecipitation of HA-RAF1 from HUVEC, western blot for 14-3-3. The test is classed as binding, Human. The settings on record: anti-HA immunoprecipitation.
Test [4] concerns HUVEC. In words: Matrigel tube formation assay. The test is classed as cell-based, Human. The following applies: overexpression in HUVEC, 8 hours.
Test [5] has as its system HUVEC. In words: Proliferation assay (cell counting). The test is classed as cell-based, Human. The following applies: overexpression in HUVEC.
For test [6], the system named is HUVEC. Put plainly: Migration (wound healing) assay. The test is classed as cell-based, Human. The following applies: under stimulation of serum, 18 hours.
Test [7] deals with HUVEC. In words: Apoptosis assay (serum withdrawal, Annexin V/PI flow cytometry). The format is cell-based, Human. The settings on record: serum-starved 48 hours, vehicle, versus empty control lentivirus. On the technique in general: A flow cytometer gives signals particle by particle.
In test [8] the test system is HUVEC. Put plainly: qPCR of artery-vein specification genes in lentivirus infected HUVEC. The test is classed as cell-based, Human. (In qPCR the cycle at which signal appears reflects the starting amount.)
Test [9] relates to HUVEC. In words: Western blot of DLL4, cleaved NOTCH1 and ERK in RAF1 virus infected HUVEC. The test is classed as cell-based, Human. A general note: In western blotting, separated proteins are transferred to a membrane and probed.
The test system of test [10] is Akt1-/- cells. In words: Dll4 expression in AKT+/+ and AKT-/- cells expressing RAF1 constructs. The test is classed as cell-based. An excerpt: FIGS. 3A to 3M show expression of Dll4 (FIG. 3A), Hey 1 (FIG. 3B), Hey 2 (FIG. 3C), Hes 1 (FIG. 3D), Coup-TFII (FIG. 3E), EphB4 (FIG. 3F), Dll1 (FIG. 3G), Ephrin B2 (FIG. 3G), Notch 1 (FIG. 3I), Notch 4 (FIG. 3J), Jagged 1 (FIG. 3K), FLK1 (FIG. 3L), Nrp1 (3N) and Flt4 (3N).

For test [11], the system named is HUVEC. Put plainly: qPCR of lymphatic fate genes in virus-transduced HUVEC. The format is cell-based, Human.
Test [12] relates to HUAEC. In words: qPCR of Prox1 in lentivirus-transduced HUAEC. The format is cell-based, Human. The settings on record: HUAEC transduced with lentivirus.
Source text: Raf1 lentiviruses were produced in 293A cells (Invitrogen) by co-transfection of pLVX-HA-Raf1 WT or S259A with lentiviral packaging plasmids pMD2.G, pRSV-REV and pMDLg/pRRE (Addgene) as described by Dull, J Virol 72:8463-8471 (1998). Control lentivirus was also made using an empty vector pLVX-IRES-puro. Ad-MEK1 CA was from Cell Biolabs, Inc. Ad-Mek1 DN was purchased from Vector Biolabs. All adenoviruses were produced, amplified and purified as described by Dull 1998; Luo, et al. Nat Protoc 2:1236-1247 (2007). For lentiviral infection, cells were incubated with lentivirus in growth medium in the presence of 8 μg/ml polybrene (Sigma) for 8 hours. For adenoviral infection, cells were incubated with adenovirus (MOI=100) in growth medium for overnight.
as §1

Test [13] deals with HDLEC. Put plainly: qPCR of lymphatic fate genes in adenovirus-transduced HDLEC. The test is classed as cell-based, Human.
In test [14] the test system is VE-cadherin-tTA/RAF1S259A double transgenic embryos. In words: Endothelial-specific RAF1S259A transgenic mice (Noonan syndrome mouse model). The format is in vivo. The settings on record: primary EC purified from E12.5 S259A embryos versus control littermates. From the text: Human wild type Raf1 and RAF1S259A plasmids were gifts of Dr. Guri Tzivion (Wayne State University). To generate RAF1S259A transgenic mice, hRAF1S259A was cloned to NotI+PstI sites of pBI-G Tet-off vector (Clontech). TRE-RAF1S259A transgenic mouse line was then generated at the Yale Animal Genomics Services center. VE-cadherin-tT A mice (Sun, et al. Proc Natl Acad Sci USA 102:128-133 (2005)) were from W. Sessa lab (Yale). Time-mating was setup by intercross of male TRE-RAF1 S259A mice with VE-cadherin-tTA female mice. For paraffin and frozen sections, embryos were fixed in 4% paraformaldehyde for overnight at 4° C.
Primary mouse endothelial cells were isolated from E12.5 embryos using a protocol similar to that described by Ren, et al. J Clin Invest 120:1217-1228 (2010). Briefly, E12.5 embryos were harvested, minced finely with scissors, and then digested in 25 ml collagenase 0.2% (w/v) at 37° C. for 20 minutes. The crude cell preparation was pelleted and resuspended in DPBS. The cell suspension was incubated with CD31-coated beads (Invitrogen) at room temperature for 10 minutes with rotation. Using a magnetic separator, the bead-bound cells were recovered, washed with DMEM-20% FBS. The cells were then used for gene expression analysis by qPCR.

Test [15] has as its system HDLEC. Put plainly: Sox18 expression in serum starved HDLEC stimulated with VEGF-C. The test is classed as cell-based, Human. The settings on record: 100 ng/ml VEGF-C. As for the experimental part: FIGS. 11A-11J are graphs showing excessive ERK activation is the basis of lymphatic abnormalities in Noonan syndrome. HUVEC (FIGS. 11A-11D) and HDLEC (FIGS. 11E-11H) were transduced with adenovirus expressing lacZ, cytosolic localized constitutive active ERK (ME) or nuclear localized constitutive active ERK (LA). Sox18 (FIGS. 11A and 11E), Prox1 (FIGS. 11B and 11F), Vegfr3 (FIGS. 11C and 11G) and Lyve1 (FIGS. 11D and 11H) expression were assessed by qPCR. Data are Mean±SEM (n=3). FIG. 11I is a graph of serum starved HDLEC stimulated with 100 ng/ml VEGF-C for an indicated time in the presence of […] (10 μM) or an equal volume of DMSO. Sox18 expression was assessed by qPCR. Data are Mean±SEM (n=3). FIG. 11J is a graph of lymphatic vessel diameter calculated by whole mount staining of skin vasculature of E14.5 embryos treated with MEK inhibitor U0126 or DMSO. Statistical significance was determined by two-tailed t-test (Control, n=5 embryos; S259A, n=3 embryos).
as §1

Setting [16] is: serum-starved HUVEC, 50 ng/ml VEGF-A164.
Where [17] appears, read: lentivirus infected HUVEC, qPCR.
Setting [18] is: adenovirus MOI 0, 5, 10, 50 for 48 hours, HUVEC.
Where [19] appears, read: HUVEC transduced with the named construct.
Setting [20] is: HDLEC transduced with the named construct.

Turning to `O=c1[nH]c2ccccc2n1C1CCN(Cc2ccc(-c3nc4cc5[nH]cnc5cc4nc3-c3ccccc3)cc2)CC1` [AKT inhibitor VIII], in [1], the Coup-TFII expression result is “significantly inhibited”, the Prox1 expression result was “significantly inhibited” and the Sox18 expression entry is “slightly inducing”.
As to “RAF1 S259A: RAF1 Ser259 to Ala259 mutant, not inhibited by AKT; expressed from lentivirus, adenovirus or endothelial transgene”, in [2] (overexpression in HUVEC by lentivirus), the ERK activation result was “constitutive activation”. In [2] (setting [16]), the Akt signaling result is recorded as “remains normal” and the Erk activation entry is “constitutive activation”. Further, the “co-immunoprecipitation with 14-3-3” value in test [3] is recorded as “did not”. Besides, the “tube formation (tube length)” value in test [4] is on record as “significantly improved”. The cell proliferation entry in test [5] is on record as “significantly inhibited”. In addition, the cell migration result in test [6] is recorded as “significantly promoted”. Besides, in [7], the cell survival result is recorded as “significantly higher survival”. In addition, in test [8] (Raf1SA introduction), the Egr1 expression entry is recorded as “activated expression”, the Ets1 expression entry was “activated expression”, the “Sox7 expression” value is on record as “not changed” and the Sox18 expression entry is recorded as “activated expression”. In test [8] (setting [17]), the “Coup-TFII (venous marker) gene expression” value is listed as “no changes”, the Dll1 gene expression entry is listed as “not affected”, the Dll4 gene expression entry was “dramatically induced” and the “EphB4 (venous fate gene) expression” value was “no changes”. In addition, in [8] (setting [17]), the “Ephrin B2 gene expression” value is “dramatically induced”, the Flk1 gene expression entry is “induced”, the Flt4 gene expression entry was “induced” and the Hes1 gene expression result is reported as “dramatically induced”. Also, in [8] (setting [17]), the Hey1 gene expression entry was “dramatically induced”, the Hey2 gene expression result is given as “dramatically induced”, the Jagged1 gene expression result was “dramatically induced” and the Notch4 gene expression entry is reported as “dramatically induced”. Besides, the “neuropilin1 (Nrp1) gene expression” value in test [8] (setting [17]) was “dramatically induced”. Further, the “Coup-TFII (venous marker) gene expression” value in [8] (lentivirus infected HUVEC, qPCR, listed as RAF1S259A) is “slightly inhibiting”. Besides, in [9] (HUVEC), the “NOTCH1 activation (cleaved NOTCH1)” value was “activated”. In addition, in test [9] (setting [18]), the DLL4 protein result is “dose-dependent and parallel increase”; the ERK activity result was “dose-dependent and parallel increase”. For the same molecule, in [9] (lentivirus overexpression in HUVEC), the Dll4 protein result is “dramatically increased”. Moreover, the DLL4 expression result in test [10] is given as “strongly induced”. Further, the Sox7 expression entry in [11] (HUVEC transduced with lentivirus) is listed as “unchanged”. Also, in test [11] (setting [19]), the Lyve1 expression result is “Increased expression”, the Prox1 expression result is listed as “upregulated”, the Sox17 expression entry was “significant increase” and the Sox18 expression result was “significant increase”. The Vegfr3 expression entry in [11] (setting [19]) is “Increased expression”. The Coup-TFII levels result in [11] (in vitro or in vivo) was “no significant effect”. For the same molecule, the Prox1 expression entry in test [12] is “upregulated”. In addition, in test [13] (HDLEC transduced with adenovirus), the Prox1 expression result is on record as “not”. Besides, in [13] (setting [20]), the Lyve1 expression entry is “Increased expression”, the Sox17 expression result is given as “significant increase”, the Sox18 expression result was “significant increase” and the Vegfr3 expression result is “Increased expression”. Moreover, the Sox18 levels entry in [14] was “significantly higher”.

B1: VEGF-C: growth factor from R&D, the key VEGF in lymphatic EC (protein, UniProt P49767 112-227, looked up)
Vascular endothelial growth …: AHYNTEILKSIDNEWRKTQCMPREVCIDVGKEFGVATNTFFKPPCVSVYRCGGCCNSEGLQCMNTSTSYLSKTLFEITVPLSQGPKPVTISFANHTSCRCMSKLDVYRQVHSIIRR
Consider B1, for which, in [15], the Sox18 expression result is reported as “induced”.

The record behind these values is patent US20140120106A1, “Stimulation of Arterial Collateral Growth and Lymphogenesis” (YALE UNIVERSITY, priority 2011, published 2014).
